Source: publication doi:10.1101/2020.04.09.034306v1 (biorxiv, 2020)

Target: T1, ACE (angiotensin-I converting enzyme, from rabbit lung) (Oryctolagus cuniculus, UniProt P12822)
T1 sequence (P12822 34-1310): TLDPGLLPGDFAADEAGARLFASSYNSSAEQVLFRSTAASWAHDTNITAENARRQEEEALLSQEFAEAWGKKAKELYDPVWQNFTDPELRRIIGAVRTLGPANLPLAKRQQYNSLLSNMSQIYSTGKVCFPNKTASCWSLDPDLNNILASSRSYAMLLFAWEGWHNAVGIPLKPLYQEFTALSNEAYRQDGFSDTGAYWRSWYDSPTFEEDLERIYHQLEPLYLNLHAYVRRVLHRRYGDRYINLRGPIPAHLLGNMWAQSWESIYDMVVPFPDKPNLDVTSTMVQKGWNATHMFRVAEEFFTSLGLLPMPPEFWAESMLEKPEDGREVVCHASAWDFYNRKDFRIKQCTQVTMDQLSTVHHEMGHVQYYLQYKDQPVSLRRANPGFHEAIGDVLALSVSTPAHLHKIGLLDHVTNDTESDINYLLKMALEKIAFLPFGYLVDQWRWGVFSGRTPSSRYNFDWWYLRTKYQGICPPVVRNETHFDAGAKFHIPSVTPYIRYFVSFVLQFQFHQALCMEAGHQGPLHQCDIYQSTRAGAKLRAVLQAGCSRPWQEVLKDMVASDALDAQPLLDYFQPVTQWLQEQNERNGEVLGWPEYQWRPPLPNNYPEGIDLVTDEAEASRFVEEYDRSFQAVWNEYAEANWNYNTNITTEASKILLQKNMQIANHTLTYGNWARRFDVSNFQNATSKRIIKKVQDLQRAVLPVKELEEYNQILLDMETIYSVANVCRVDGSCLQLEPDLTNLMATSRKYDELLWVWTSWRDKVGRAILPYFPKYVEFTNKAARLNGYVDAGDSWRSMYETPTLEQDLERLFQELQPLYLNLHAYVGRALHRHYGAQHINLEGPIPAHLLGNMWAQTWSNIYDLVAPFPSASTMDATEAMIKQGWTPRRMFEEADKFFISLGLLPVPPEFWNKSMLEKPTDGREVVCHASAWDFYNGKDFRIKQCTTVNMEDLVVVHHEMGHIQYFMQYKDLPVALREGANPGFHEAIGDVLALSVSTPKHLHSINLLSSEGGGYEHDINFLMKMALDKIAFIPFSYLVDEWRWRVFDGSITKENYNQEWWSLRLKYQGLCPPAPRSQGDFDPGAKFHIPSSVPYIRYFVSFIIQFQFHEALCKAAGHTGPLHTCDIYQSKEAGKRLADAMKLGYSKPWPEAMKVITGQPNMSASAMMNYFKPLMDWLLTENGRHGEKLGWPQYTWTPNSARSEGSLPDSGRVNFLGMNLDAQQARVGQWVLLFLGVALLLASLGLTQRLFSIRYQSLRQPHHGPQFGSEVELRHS
Assay: hippuric acid release from HHL, cyanuric chloride colour at […] nm
Type: biochemical

NCCCC[C@H](N[C@@H](CCc1ccccc1)C(=O)O)C(=O)N1CCC[C@H]1C(=O)O [Lisinopril]
IC50: 764 nM
